Structures can show the parent of a compound that is named as a salt. Where two headings read alike, the source gives them in different places.
Tests used:
[1] = for Colour/Aspect 10 months later / Purity (HPLC) 10 months later / XRD result 10 months later: room temperature, ambient atmosphere; for Purity (HPLC) % initial / XRD result Initial: before storage
[2] = Particle size studies of rasagiline salts (Malvern Mastersizer S); details: particle size by volume, suspended in Isopar G with soybean lecithin
[3] = Accelerated stability studies of rasagiline salts (40° C. and 75% RH; PE and AL bags); type: physicochemical; details: for XRD 1st Month / XRD 2nd Month / Purity (HPLC) 1st Month / Purity (HPLC) 2nd Month: 40° C. and 75% RH; for XRD 1st Month / Purity (HPLC) 1st Month: 1 month; for XRD 2nd Month / Purity (HPLC) 2nd Month: 2 months
Description: Rasagiline salts were submitted to accelerated conditions (40° C. and 75% RH) in two types of bags: polyethylene (PE) and aluminium (AL) bags. The samples were characterized by HPLC, XRD, and visual inspection.

[4] = Flowability studies of rasagiline salts (bulk and tapped density, Hausner ratio); details: for Flowability: flow character by Hausner ratio; for Bulk density: freely settled; for Hausner ratio: tapped bulk density divided by bulk density
physchem = details: water
Description: The mother liquors were analyzed by HPLC.

[5] = 40° C. and 75% RH for one and two months
[6] = listed as rasagiline besylate Form I
[7] = room temperature, stirred until equilibration, HPLC
[8] = listed as rasagiline succinate Form I

Compound	Colour/Aspect 10 months later [1]	Purity (HPLC) 10 months later [1]	XRD result 10 months later [1]	Purity (HPLC) % initial [1]	XRD result Initial [1]	stability after ten months of storage (in words) [1]	D(v, 0.1) [2]	D(v, 0.5) [2]	D(v, 0.9) [2]	Purity (HPLC) % initial [3]	XRD Initial [3]	Tapped density [4]	Bulk density [4]	also measured
C#CCN[C@@H]1CCc2ccccc21.O=C(O)[C@H]1OC(O)[C@H](O)[C@@H](O)[C@@H]1O [D-Glucuronate, rasagiline D-glucuronate]	brown oil	50.64%	amorphous	86.00%	amorphous	highly stable in terms of polymorphic form	–	–	–	–	–	–	–	–
C#CCN[C@@H]1CCc2ccccc21.O=C(O)[C@@H](O)[C@H](O)[C@H](O)[C@@H](O)C(=O)O [Galactarate, rasagiline galactarate]	–	98.81%	–	98.92%	–	stable in terms of chemical purity and of polymorphic form	–	–	–	–	–	–	–	–
C#CCN[C@@H]1CCc2ccccc21.O=C(O)[C@H](O)[C@@H](O)[C@H](O)[C@H](O)CO [Gluconate, rasagiline gluconate]	brown oil	96.36%	amorphous	98.61%	amorphous	–	–	–	–	–	–	–	–	–
C#CCN[C@@H]1CCc2ccccc21.C#CCN[C@@H]1CCc2ccccc21.O=C(O)C(O)C(O)C(=O)O [Hemitartrate Form I, rasagiline L-hemitartrate]	white powder	98.86%	Form I	99.14%	Form I	highly stable in terms of visual aspect, chemical purity and of polymorphic form	4.5 μm	18.3 μm	78.8 μm	99.27%	Form I	0.181 g/mL	0.138 g/mL	stability under accelerated stability conditions (in words) [3, 5]: highly stable in terms of visual aspect, chemical purity and of polymorphic form; Flowability [4]: Passable (1.26-1.34); Flowability ([4]; listed as rasagiline L-hemitartrate Form I): passable; Flowability ([4]; listed as rasagiline L-hemitartrate salt Form I): excellent
C#CCN[C@@H]1CCc2ccccc21 [Hydrochloride Form II, rasagiline hydrochloride]	–	–	–	–	–	–	41.7 μm	99.6 μm	185.2 μm	>99.9%	Form II	0.673 g/mL	0.673 g/mL	stability under accelerated stability conditions (in words) [3, 5]: highly stable in terms of visual aspect, chemical purity and of polymorphic form; XRD 1st Month ([3]; AL bag): Form II; XRD 2nd Month ([3]; AL bag): Form II; XRD 1st Month ([3]; PE bag): Form II; XRD 2nd Month ([3]; PE bag): Form II; Purity (HPLC) 1st Month ([3]; aluminium (AL) bag): >99.9%; Purity (HPLC) 2nd Month ([3]; aluminium (AL) bag): >99.9%; Purity (HPLC) 1st Month ([3]; polyethylene (PE) bag): >99.9%; Purity (HPLC) 2nd Month ([3]; polyethylene (PE) bag): >99.9%; Flowability ([4]; hydrochloride): Excellent (1.00-1.11); Flowability ([4]; listed as rasagiline hydrochloride Form II, hydrochloride): excellent; Flowability ([4]; listed as rasagiline hydrochloride salt Form II, hydrochloride): excellent; Solubility (physchem; thermodynamic from solid): ~400 mg/mL
C#CCN[C@@H]1CCc2ccccc21 [Hydrochloride, rasagiline hydrochloride]	white powder	99.74%	Form I	99.18%	Form I	highly stable in terms of chemical purity and of polymorphic form	–	–	–	–	–	–	–	–
C#CCN[C@@H]1CCc2ccccc21.CS(=O)(=O)O [Mesylate, R-(+)-N-propargyl-1-aminoindan mesylate, reference compound]	white powder	99.8%	Form I	99.58%	Form I	–	–	–	–	–	–	0.407 g/mL	0.236 g/mL	Flowability ([4]; listed as rasagiline mesylate, mesylate): very, very poor; Flowability ([4]; mesylate): Very, very poor (>1.60)
rasagiline besylate [Besylate Form I]	–	–	–	–	–	–	6.5 μm	28.8 μm	50.6 μm	>99.9%	Form I	0.435 g/mL	0.427 g/mL	stability under accelerated stability conditions (in words) ([3]; 40° C. and 75% RH for one month): stable in terms of chemical purity and of polymorphic form; XRD 1st Month ([3]; AL bag): Form I; Purity (HPLC) 1st Month ([3]; aluminium (AL) bag): >99.9%; Purity (HPLC) 1st Month ([3]; polyethylene (PE) bag): >99.9%; Flowability [4]: Excellent (1.00-1.11); Flowability [4, 6]: excellent; Flowability ([4]; listed as rasagiline besylate salt Form I): excellent; Hausner ratio [4]: 1.02; Hausner ratio [4, 6]: 1.00; Descriptive term (solubility) (physchem; room temperature): Freely soluble; Solubility (physchem; [7]): >800 mg/mL; Solubility (physchem; room temperature, stirred until equilibration, HPLC, listed as rasagiline besylate Form I): > 800 mg/mL; Descriptive term (solubility) (physchem; room temperature, listed as rasagiline besylate Form I): freely soluble
rasagiline fumarate	–	53.64%	–	59.56%	Form I	–	–	–	–	–	–	–	–	–
rasagiline maleate	white powder	63.27%	–	66.54%	Form I	–	–	–	–	–	–	–	–	–
rasagiline phosphate	white powder	99.60%	–	98.45%	amorphous	–	–	–	–	–	–	–	–	–
rasagiline succinate [Succinate Form I]	–	99.61%	Form I	99.29%	Form I	highly stable in terms of visual aspect, chemical purity and of polymorphic form	23.6 μm	85.1 μm	180.4 μm	>99.9%	Form I	0.513 g/mL	0.492 g/mL	stability under accelerated stability conditions (in words) [3, 5]: highly stable in terms of visual aspect, chemical purity and of polymorphic form; XRD 1st Month ([3]; AL bag): Form I; XRD 2nd Month ([3]; AL bag): Form I; XRD 1st Month ([3]; PE bag): Form I; XRD 2nd Month ([3]; PE bag): Form I; Purity (HPLC) 1st Month ([3]; aluminium (AL) bag): >99.9%; Purity (HPLC) 2nd Month ([3]; aluminium (AL) bag): 99.92%; Purity (HPLC) 1st Month ([3]; polyethylene (PE) bag): >99.9%; Purity (HPLC) 2nd Month ([3]; polyethylene (PE) bag): 99.92%; Flowability [4]: Excellent (1.00-1.11); Flowability [4, 8]: excellent; Flowability ([4]; listed as rasagiline succinate salt Form I): excellent; Hausner ratio [4]: 1.04; Hausner ratio [4, 8]: about 1.04; Descriptive term (solubility) (physchem; room temperature): Very soluble; Solubility (physchem; [7]): >1200 mg/mL; Solubility (physchem; room temperature, stirred until equilibration, HPLC, listed as rasagiline succinate Form I): > 1200 mg/mL; Descriptive term (solubility) (physchem; room temperature, listed as rasagiline succinate Form I): very soluble
rasagiline tosylate	–	75.89%	Form I	79.87%	Form I	highly stable in terms of polymorphic form	–	–	–	–	–	–	–	–
